Values joined by “and” are separate entries in the source; they are usually repeats but may differ in a detail not shown here. Equal entries are not always repeated.
Columns and labels:
[1] = system: P. falciparum asexual blood stages (PfAS); experiment: Chemical rescue with CoA pathway intermediates, asexual stages; type: cell-based, Plasmodium falciparum; settings: for Percent rescue ± SEM by CoA, PfAS: CoA 0.8 mM; for Percent rescue ± SEM by CoA, PfAS / Percent rescue ± SEM by dephospho CoA, PfAS / Percent rescue ± SEM by pantethine, PfAS / Percent rescue ± SEM by pantothenate, PfAS: inhibitor at IC80; for Percent rescue ± SEM by dephospho CoA, PfAS: dP-CoA 0.8 mM; for Percent rescue ± SEM by pantethine, PfAS: pantethine 125 μM; for Percent rescue ± SEM by pantothenate, PfAS: pantothenate 300 μM
Method: (§1) Pantothenate is the first substrate of the pathway (Fig. 1) and its addition was intended to rescue the action of possible competitive inhibitors of the first enzyme, PanK. […] It is not known, whether P. falciparum is capable of pantetheine phosphorylation for utilization in CoA synthesis. […] Finally, the rescue ability of dP-CoA, the final substrate of CoA synthesis, was tested. […] Inhibitors competing with dP-CoA for DPCK binding were expected to be displaced, thereby rescuing parasite survival, by dP-CoA supplementation in a concentration dependent manner.
(§2) An imaging based assay was utilised to assess the chemical rescue on asexual stages of P. falciparum as described previously. All the pathway intermediates were purchased from Sigma. CoA and dP-CoA were dissolved in sterile distilled water to obtain a 20 mM stock solution, which was then aliquoted and stored at -20 °C until use. […] Each pathway intermediate was tested on the parasites at a range of concentrations to assess potential toxicity. […] On early stage P. falciparum gametocytes the same concentrations as for CoA were tested for dP-CoA; against asexual blood stage P. falciparum, late stage gametocytes and Trypanosoma b. brucei five dP-CoA concentrations were tested (2 mM, 1.5 mM, 1 mM, 0.75 mM and 0.5 mM).
The same concentration ranges of the CoA pathway intermediates were supplemented to parasites treated with the experimental compounds. The inhibitors were used at their respective final assay concentration of IC80 (as determined previously in the corresponding P. falciparum development stage or T. b. brucei assay). […] The negative control used in each assay was 0.4% DMSO, whilst the positive control was 2 μM artemisinin for asexual P. falciparum blood stages and 5 μM puromycin for all gametocyte stages and T. b. brucei. The percentage growth of the respective parasites following compound treatment was determined using Microsoft ® Excel 2010, and compared with their controls. All rescue assays were performed as two independent experiments each in duplicate point.

3T3 cells = experiment: 3T3 host cell cytotoxicity (part of T. cruzi amastigote image-based assay); set-up: species or system mouse; settings: bound = highest concentration with < 50 % inhibition; read-out: 3T3 cytotoxicity IC50 ± SEM
Text: (§3) An initial indication of compound selectivity over human cells had previously been obtained through comparison of the compounds’ IC50 values against P. falciparum asexual stages and HEK293 [22]. In the present study, the selectivity investigation was extended to a small panel of human cancer cell lines, namely the estrogen receptor (ER)-positive breast cancer cell line MCF7, the ER-negative MDA-MB-231, as well as the human prostate cancer line, PC-3. Additionally, the cytotoxic effects on mouse embryonic fibroblast cell line 3T3, which serves as the host cell for T. cruzi in our image-based amastigote assay, were investigated.
(§4) Cytotoxicity of the compounds was assessed against a panel of human cancer cell lines, namely the estrogen receptor (ER)-positive breast cancer cell line MCF7, the ER-negative MDA-MB-231 and the prostate cancer line PC-3. All the cell lines were purchased from ATCC and maintained as previously described. Two biological replicates consisting of two technical replicates each were performed to generate concentration response curves (CRC) with a final highest concentration of 40 μM. A resazurin-based assay was utilized to determine cell viability as described earlier. Additionally, the cytotoxic effects on the mouse embryonic fibroblast cell line 3T3 were assessed as part of the Trypanosoma cruzi amastigote image-based assay as outlined in [35].

[2] = system: P. falciparum asexual blood stages / early gametocytes; experiment: Chemical rescue of MMV000570 (Table S3B; PfAS and PfEG replicates, columns not assignable); type: cell-based, Plasmodium falciparum; settings: stage and replicate not assignable
Method: as §2
(§5) The same concentration ranges of the CoA pathway intermediates were supplemented to parasites treated with the experimental compounds. […] The negative control used in each assay was 0.4% DMSO, whilst the positive control was 2 μM artemisinin for asexual P. falciparum blood stages and 5 μM puromycin for all gametocyte stages and T. b. brucei. The percentage growth of the respective parasites following compound treatment was determined using Microsoft ® Excel 2010, and compared with their controls. All rescue assays were performed as two independent experiments each in duplicate point.

T. cruzi amastigotes = experiment: T. cruzi amastigote image-based assay in 3T3 host cells; type: cell-based, Trypanosoma cruzi; settings: 40 µM per footnote; given if an IC50 could not be calculated
Method: The next step taken was to determine whether the activity of the compounds was confined to P. falciparum, or whether it extended to other protozoan parasites. Compound activity against two members of another clinically important group of parasites, the kinetoplastids T. cruzi and T. b. brucei was determined. The sensitive high content imaging assay used to determine compound activity against T. cruzi assesses the intracellular amastigote life form of the parasite in the 3T3 host cell. It is important to simultaneously assess compound activity against 3T3 cells to determine potential cytotoxicity against the host cell line, since this could result in a false positive outcome. The T. b. brucei assay employs the REDOX indicator Alamar Blue to assess viability, which was developed into a 384-well assay format.
Compound activity against T. cruzi amastigotes was assessed in an image-based assay in single point concentration-response and three biological replicates, at a final highest compound concentration of […], as previously described.

PC-3 cells = experiment: Resazurin cytotoxicity assay, PC-3; type: cell-based, human
Text: as §3, §4

[3] = system: T. b. brucei trypomastigote; experiment: T. b. brucei resazurin (Alamar Blue) viability assay; type: cell-based, Trypanosoma brucei brucei; settings: for IC50: highest concentration 40 μM, read-out: T. b. brucei trypomastigote IC50 ± SEM
Method: Compound activity against two members of another clinically important group of parasites, the kinetoplastids T. cruzi and T. b. brucei was determined. The sensitive high content imaging assay used to determine compound activity against T. cruzi assesses the intracellular amastigote life form of the parasite in the 3T3 host cell. […] The T. b. brucei assay employs the REDOX indicator Alamar Blue to assess viability, which was developed into a 384-well assay format.
Compound activity against T. b. brucei was assessed in a resazurin-based viability assay in concentration-response assays, without technical repeats, in two experimental replicates at a highest concentration of 40 μM, as previously described.

MCF7 cells = experiment: Resazurin cytotoxicity assay, MCF7; type: cell-based, human
Text: as §3, §4

HEK293 cells = settings: as previously reported; read-out: HEK293 cytotoxicity IC50 ± SEM; cited from earlier work
MDA-MB-231 cells = experiment: Resazurin cytotoxicity assay, MDA-MB-231; type: cell-based, human
Text: as §3, §4

T. cruzi trypomastigotes = experiment: T. cruzi trypomastigote PrestoBlue assay; type: cell-based, Trypanosoma cruzi; settings: for T. cruzi trypomastigote percent inhibition at the highest concentration tested: 40 µM, given if an IC50 could not be calculated
Method: Compound activity against T. cruzi trypomastigotes was assessed in two independent experiments, without technical repeats, at a final highest compound concentration of 40 μM in concentration-response PrestoBlue assay, as previously described.

[4] = system: early stage gametocytes (stage I to IIb/III) of P. falciparum line NF54^Pfs16; settings: cited from earlier work
[5] = system: P. falciparum asexual blood stage; settings: cited from earlier work; for IC50: as previously reported, read-out: Asexual P. falciparum IC50 ± SEM
[6] = system: panel of human cancer cell lines (MCF7, MDA-MB-231, PC-3); experiment: Cytotoxicity across the panel of cell lines; type: cell-based
Text: as §3, §4

[7] = system: late stage gametocytes (stage IV to V) of P. falciparum line NF54^Pfs16; experiment: Gametocyte luciferase assay, late stage; type: cell-based, Plasmodium falciparum
Text: (§6) To investigate a potential role of CoA biosynthesis for host to vector transmission of the malaria parasite, we investigated the activity of our compounds on P. falciparum gametocytes, the sexual stages of P. falciparum, essential for malaria transmission. […] Parasite stage-specificity and gametocytocidal activity of the compounds was therefore investigated, utilizing a luciferase-based approach on early stage (development from stage I to IIb/III [30]) and late stage (IV to V [51]) gametocytes.
(§7) Induction of P. falciparum gametocyte differentiation and gametocyte culturing were performed as previously described. Compound activity against early stage gametocytes (covering the development from stage I to IIb/III) and late stage gametocytes (stage IV to V) of the recombinant P. falciparum line NF54^Pfs16 was assessed in concentration-response assays, in two experimental replicates consisting of two technical repeats each, at a highest concentration of 40 μM, as described earlier.

[8] = molecular target: early stage gametocytes (stage I to IIb/III) of P. falciparum line NF54^Pfs16; experiment: Gametocyte luciferase assay, early stage; type: cell-based, Plasmodium falciparum; settings: highest concentration 40 μM; read-out: Early stage gametocyte IC50 ± SEM
Text: as §6, §7

[9] = system: P. falciparum early stage gametocytes (PfEG, stage I-III); experiment: Chemical rescue with CoA pathway intermediates, early stage gametocytes; type: cell-based, Plasmodium falciparum; settings: inhibitor at IC80
Method: as §1, §2, §5

[10] = system: P. falciparum developmental stages; experiment: Activity across all P. falciparum life-cycle stages tested (asexual, early and late gametocytes); type: cell-based, Plasmodium falciparum; settings: early and late stage gametocytes
Method: as §7

[11] = 40 µM, given if an IC50 could not be calculated

CCc1ccc(Nc2cc(C)c3ccc(O)cc3n2)cc1.Cl [MMV000570]
Rescue of growth inhibitory effect by any of the intermediates (in words) ([1]; compound at 1 μM): could not effectively be rescued by any of the intermediates | IC50 (3T3 cells): > 40 µM | percent rescue averages ± SEM by CoA, tested at IC80 concentration [2]: 6.4% and 8.1% and -1.6% and 26.7% | percent rescue averages ± SEM by pantothenate, tested at IC50 concentration [2]: 3.5% and -0.6% and 4.3% and 28.6% | percent rescue averages ± SEM by pantothenate, tested at IC80 concentration [2]: 3.1% and 2.2% and 2.3% and 5.2% | T. cruzi amastigote percent inhibition at the highest concentration tested (T. cruzi amastigotes): 96% | PC-3 percent inhibition at the highest concentration tested (PC-3 cells; 40 µM): 98% | IC50 [3]: 5.85 ± 1.11 µM | MCF7 percent inhibition at the highest concentration tested (MCF7 cells; 40 µM): 96% | IC50 (HEK293 cells): ~40 µM | MDA-MB-231 percent inhibition at the highest concentration tested (MDA-MB-231 cells; 40 µM): 90% | T. cruzi trypomastigote percent inhibition at the highest concentration tested (T. cruzi trypomastigotes): 100%

COc1ccc2c(=O)cc(C(Cl)(Cl)Cl)oc2c1 [MMV665820]
inhibition against early stage gametocytes in earlier dose-response ([4]; 1 μM): about 50% | IC50 [5]: 0.58 ± 0.08 µM | plateau of P. falciparum growth inhibition ([5]; asexual blood stage): 100% | Percent rescue ± SEM by CoA, PfAS [1]: 113.3 ± 12.3% | Percent rescue ± SEM by dephospho CoA, PfAS [1]: 88.6 ± 18.3% | Percent rescue ± SEM by pantethine, PfAS [1]: No | Percent rescue ± SEM by pantothenate, PfAS [1]: No | IC50 ([6]; MCF7, MDA-MB-231, PC-3, read-out: IC50 range against the cancer cell lines): 0.27 to 0.43 µM | Late stage gametocyte percent inhibition at the highest concentration tested [7, 11]: 69% | T. cruzi amastigote percent inhibition at the highest concentration tested (T. cruzi amastigotes): 62% | IC50 [8]: 0.44 ± 0.03 µM | inhibition plateau level of the concentration-response curve, PC-3 (PC-3 cells): 80% | IC50 [3]: 2.5 µM | inhibition plateau level of the concentration-response curve, MDA-MB-231 (MDA-MB-231 cells): 43% | T. cruzi trypomastigote percent inhibition at the highest concentration tested (T. cruzi trypomastigotes): 100% | Percent rescue ± SEM by pantethine, PfEG ([9]; pantethine 10 mM): No | Percent rescue ± SEM by pantothenate, PfEG ([9]; pantothenate 625 μM): No

OC1CCCCC1C1(NC(=S)Nc2ccccc2)CCCCC1 (centres unmarked) [MMV665980]
gametocytocidal activity in earlier screen versus hit threshold (in words) ([4]; screening concentration 5 μM, threshold 50% activity): lower than the hit threshold | IC50 [5]: 6.31 ± 1.06 µM | Percent rescue ± SEM by CoA, PfAS [1]: 54.4 ± 2.5% | Percent rescue ± SEM by dephospho CoA, PfAS [1]: 46.0 ± 2.6% | Percent rescue ± SEM by pantethine, PfAS [1]: No | Percent rescue ± SEM by pantothenate, PfAS [1]: No | cytotoxicity against any of the cell lines investigated (in words) ([6]; up to the highest tested concentration of 40 μM): no or only negligible cytotoxicity | IC50 (3T3 cells): > 40 µM | IC50 ([7]; highest concentration 40 μM, read-out: Late stage gametocyte IC50 ± SEM): 4.15 ± 0.56 µM | activity against all P. falciparum development stages tested (in words) [10]: moderate, single digit micromolar activity | T. cruzi amastigote percent inhibition at the highest concentration tested (T. cruzi amastigotes): 70% | IC50 [8]: 7.54 ± 0.39 µM | IC50 (PC-3 cells; highest concentration 40 μM, bound = highest concentration with < 50 % inhibition, read-out: PC-3 cytotoxicity IC50 ± SEM): > 20 µM | T. b. brucei trypomastigote percent inhibition at the highest concentration tested [3, 11]: 100% | IC50 (MCF7 cells; highest concentration 40 μM, bound = highest concentration with < 50 % inhibition, read-out: MCF7 cytotoxicity IC50 ± SEM): > 40 µM | IC50 (HEK293 cells): > 40 µM | IC50 (MDA-MB-231 cells; highest concentration 40 μM, bound = highest concentration with < 50 % inhibition, read-out: MDA-MB-231 cytotoxicity IC50 ± SEM): > 40 µM | IC50 (T. cruzi trypomastigotes; highest concentration 40 μM, read-out: T. cruzi trypomastigote IC50 ± SEM): 4.42 ± 0.89 µM
